The text below walks through data of publication PMC11601618 (bioRxiv, 2024).

Series [1] concerns the target T1, chicken BEST1 (bestrophin 1) (Gallus gallus, UniProt A0A8V0ZZU7).
T1 sequence (A0A8V0ZZU7 1-405): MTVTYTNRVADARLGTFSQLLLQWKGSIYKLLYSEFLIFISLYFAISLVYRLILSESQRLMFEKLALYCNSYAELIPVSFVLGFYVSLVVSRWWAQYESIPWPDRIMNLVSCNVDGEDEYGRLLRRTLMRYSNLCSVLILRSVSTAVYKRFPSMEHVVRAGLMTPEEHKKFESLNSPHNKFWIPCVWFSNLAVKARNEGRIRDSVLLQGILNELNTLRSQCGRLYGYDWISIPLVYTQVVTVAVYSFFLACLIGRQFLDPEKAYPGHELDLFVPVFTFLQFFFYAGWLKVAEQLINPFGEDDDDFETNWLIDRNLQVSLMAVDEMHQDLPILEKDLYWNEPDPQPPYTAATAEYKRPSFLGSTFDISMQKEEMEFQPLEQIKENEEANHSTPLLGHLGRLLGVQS
The series is described as follows: cryo-EM structure with […] GABA. It is filed as biochemical.

The series “cryo-EM structure” deals with the molecule itself. The series is described as follows: cryo-EM structure.

In general, EC50 refers to the concentration that produces a half-maximal response. In the case of `NCCCC(=O)O` [GABA], in series [1], the EC50 is about 2000 µM.

B1: human BEST1 (spanning amino acids 1-398) (domain or fragment, UniProt O76090 1-398, looked up)
chain: MTITYTSQVANARLGSFSRLLLCWRGSIYKLLYGEFLIFLLCYYIIRFIYRLALTEEQQLMFEKLTLYCDSYIQLIPISFVLGFYVTLVVTRWWNQYENLPWPDRLMSLVSGFVEGKDEQGRLLRRTLIRYANLGNVLILRSVSTAVYKRFPSAQHLVQAGFMTPAEHKQLEKLSLPHNMFWVPWVWFANLSMKAWLGGRIRDPILLQSLLNEMNTLRTQCGHLYAYDWISIPLVYTQVVTVAVYSFFLTCLVGRQFLNPAKAYPGHELDLVVPVFTFLQFFFYVGWLKVAEQLINPFGEDDDDFETNWIVDRNLQVSLLAVDEMHQDLPRMEPDMYWNKPEPQPPYTAASAQFRRASFMGSTFNISLNKEEMEFQPNQEDEEDAHAGIIGRFLGLQS
The term stoichiometry N denotes the number of molecules, sites or subunits per partner or assembly. Regarding B1, the “stoichiometry N” value in the series “cryo-EM structure” was found to be 5.
